From patent US11207299B2, “Biphenyl sulfonamide compounds for the treatment of type IV collagen diseases” (Travere Therapeutics, Inc., priority 2018, dated 2021)
Values joined by “and” are separate entries in the source; they are usually repeats but may differ in a detail not shown here. Identical values can stand only once. “Also recorded” adds a separate entry of the source.

Key:
Format in all cases: in vivo, mouse
[1] = test system: autosomal Alport mice (COL4A3^−/−); experiment: Hearing study in Alport mice (ABR, noise exposure, strial capillary basement membrane TEM)
Source text: (§1) Vehicle or sparsentan was given daily by oral gavage to autosomal Alport mice (COL4A3^−/−) on the 129/Sv background (male and female) in five separate studies: a pilot study, an early intervention study (treated from 3-7 weeks of age), a late intervention study (treated from 5-7 weeks of age after the onset of glomerular (GM) changes), a lifespan study, and a hearing study (FIG. 1). The early intervention, late intervention, lifespan, and hearing studies also included mice treated with a comparator, losartan, which was given orally at 3-4 weeks of age in the early intervention study, in drinking water at 4-7 weeks of age in the early intervention study, and in drinking water at 5-7 weeks in the late intervention study.
(§2) Efficacy renal endpoints included blood urea nitrogen (BUN), proteinuria (urine protein to creatinine ratio, or UP/C), glomerulosclerosis, tubulointerstitial fibrosis, leucocyte infiltration, and glomerular basement morphology (GBM) using transmission electron microscopy (TEM). Endpoints in the inner ear included auditory brain stem response (ABR) threshold as a measure of noise-induced hearing loss, strial capillary basement membrane thickness, and inner ear pathology by TEM.
For the hearing study, wild-type or Alport mice were treated according to daily from 3-8.5 weeks of age by oral gavage with vehicle (0.5% methylcellulose 4000 cps/0.25% Tween® 80 in distilled water) or 120 mg/kg sparsentan or losartan at 20 mg/kg by oral gavage from 3-4 weeks of age (during weaning) and 10 mg/kg in drinking water from 4-7 weeks of age (n=5). The progression of Alport disease was assessed at 7 weeks of age by the amount of proteinuria (via urinalysis reagent strips—data not shown). Strial capillary basement membrane (SCBM) width was analyzed by transmission electron microscopy (TEM), and accumulation of extracellular matrix (ECM) in SCBM was determined by immunofluorescence (IF) microscopy using an antibody to laminin α2. Hearing ability and sensitivity to noise were assessed between 7 and 8 weeks of age by Auditory Brainstem Response (ABR), pre-noise exposure. A subset of each treatment group was then exposed to a metabolic noise stress for 10 hours. Mice receiving the noise treatment were randomly selected for overstimulation with a 106 dB sound pressure level (SPL), narrow band noise (8-16 kHz) for 10 hours, usually 10 PM to 8 AM. The noise exposure was conducted in a sound-isolation booth. A speaker was suspended from the ceiling. Wire cages with individual compartments were located midway between the floor and speaker. Mice were hydrated prior to placement in the cage and were provided free access to food. The noise exposure occurred at 8 weeks of age. The amount of hearing loss caused by the metabolic noise exposure was determined 5 days post-exposure.

[2] = test system: autosomal Alport mice (COL4A3^−/−); experiment: Lifespan study in Alport mice
Source text: as §1
In the lifespan study, Alport mice (n=10) were dosed using the same methodology as in the early intervention study, except that dosing was continued until mice had lost 10% of their peak body weight, after which they were euthanized.
For the pilot, early intervention, late intervention, and lifespan studies, spot urine was sampled pre-study and weekly during treatment and analyzed for protein (UP) and creatinine (C) to determine proteinuria (UP/C). At the end of each study the animals were euthanized, blood samples were taken, BUN was measured from serum, and kidneys were harvested for structural and immuno-fluorescent measurements. Glomerulosclerosis was assessed by immunofluorescence (IF) using an antibody to fibronectin (FN). Visual counting of the number of sclerotic glomeruli as a proportion of the total number of glomeruli per slide was used to calculate the percentage of sclerotic glomeruli. Sections were co-stained with an anti-CD45 antibody to indicate leucocyte infiltration. Tubulointerstitial fibrosis was determined by IF of kidney sections using an antibody to collagen 1 (COL1). Tubulointerstitial fibrosis (TIF) scoring was conducted by visual assessment of the COL1 positive area as a percentage of the total cortical area and was performed blinded. […]

[3] = test system: autosomal Alport mice (COL4A3^−/−); experiment: Late intervention study in Alport mice (treated from 5-7 weeks of age)
Source text: as §1, §2
In the late intervention study, wild-type or Alport mice (8 mice per group) were dosed for 14 days according to the same methods used in the early intervention study but beginning at 5 weeks of age, i.e., dosed with vehicle, 120 mg/kg of sparsentan, or 10 mg/kg losartan starting at 5 weeks of age for 14 days. In this study, untreated Alport mice at 5 weeks of age were also used as baseline controls.
For the pilot, early intervention, late intervention, and lifespan studies, spot urine was sampled pre-study and weekly during treatment and analyzed for protein (UP) and creatinine (C) to determine proteinuria (UP/C). At the end of each study the animals were euthanized, blood samples were taken, BUN was measured from serum, and kidneys were harvested for structural and immuno-fluorescent measurements. Glomerulosclerosis was assessed by immunofluorescence (IF) using an antibody to fibronectin (FN). Visual counting of the number of sclerotic glomeruli as a proportion of the total number of glomeruli per slide was used to calculate the percentage of sclerotic glomeruli. Sections were co-stained with an anti-CD45 antibody to indicate leucocyte infiltration. Tubulointerstitial fibrosis was determined by IF of kidney sections using an antibody to collagen 1 (COL1). Tubulointerstitial fibrosis (TIF) scoring was conducted by visual assessment of the COL1 positive area as a percentage of the total cortical area and was performed blinded. The fibrosis scoring (“Fibrosis Score”) was categorized according to visual judgment of percentage of total cortical area, as: 0=<5%, 1=5-10%, 2=10-25%, 3=25-50%, 4=50-75%, or 5=75-100%. Ultrastructural changes in GBM and podocyte morphology were observed using transmission electron microscopy (TEM).
For a baseline comparison for late intervention, glomerulosclerosis and fibrosis were determined in kidney samples taken from 5-week-old untreated Alport mice.

[4] = Alport mice late intervention, sparsentan 120 mg/kg, mean ± SD

SMILES: CCCCC1=NC2(CCCC2)C(=O)N1Cc1ccc(-c2ccccc2S(=O)(=O)Nc2noc(C)c2C)c(COCC)c1 [sparsentan]
- Hearing ability before noise exposure (ABR) ([1]; 7-8-week-old mice, sparsentan 120 mg/kg or losartan 20/10 mg/kg): did not differ significantly
- Post-noise hearing loss (ABR threshold post-noise minus pre-noise) vs vehicle-treated Alport mice ([1]; 16 kHz, 5 days after 10 h noise, sparsentan 120 mg/kg, P<0.05): prevented; also recorded: significantly reduced
- Increase in strial capillary basement membrane width observed in vehicle-treated Alport mice ([1]; Alport mice treated 3-8.5 weeks of age with sparsentan or losartan): prevented
- mean SCBM width±SD ([1]; Alport mice, sparsentan 120 mg/kg from 3-8.5 weeks of age, TEM, n=5): 54.7±2.4 nm
- Strial capillary basement membrane thickness, single measurements (FIG. 16) ([1]; capillary from a stria of a sparsentan-treated Alport mouse, TEM): 52.45 nm and 58.09 nm and 80.38 nm
- Stria vascularis pathology by TEM ([1]; treated Alport mice, FIGS. 14-23): substantially fewer extra- and intra-cytosolic vacuoles
- Lifespan compared to vehicle-treated Alport mice ([2]; dosing as in early intervention study, continued until 10% loss of peak body weight, P<0.05): significantly longer; also recorded: significantly greater
- Median lifespan ([2]; sparsentan compared with losartan): the same as losartan
- UP/C ([3]; Alport mice late intervention, sparsentan 120 mg/kg for 14 days from 5 wk of age, mean ± SD, n = 8): 16.8 ± 2.8 mg/mg
- BUN [3, 4]: 16.2 ± 2.4 mg/dL
- GS (% Sclerotic glomeruli) [3, 4]: 8.3 ± 9.2 %
- TIF ([3]; Alport mice late intervention, sparsentan 120 mg/kg, tubulointerstitial fibrosis score, mean ± SD): 0.8 ± 0.7
- Nephroprotection in AP mice ([3]; late intervention, to a greater extent than in the losartan-treated group): significant nephroprotection
- Development of fibrosis, CD45^+ leucocyte infiltration, and glomerulosclerosis ([3]; sparsentan 120 mg/kg or losartan 10 mg/kg, 5-7 weeks of age): prevented; also recorded: attenuated
- UP/C, BUN, glomerulosclerosis, and fibrosis vs. vehicle-treated Alport mice ([3]; sparsentan 120 mg/kg, late intervention, P<0.05): significantly lower
